Target: FP receptor (Homo sapiens (Human), UniProt P43088)
Assay: In vitro test of inhibition of human FP receptor activity (PGF2α-induced calcium flux in FP-expressing CHEM1 cells)
Type: cell-based
Settings: PGF2α-induced (2 nM) calcium flux in FP-expressing CHEM1 cells; some as mean values from multiple determinations
Source text: Table 1 below lists the IC50 values from this assay for individual working examples of the invention (some as mean values from multiple independent individual determinations): […]

Chain of FP receptor (P43088 whole entry): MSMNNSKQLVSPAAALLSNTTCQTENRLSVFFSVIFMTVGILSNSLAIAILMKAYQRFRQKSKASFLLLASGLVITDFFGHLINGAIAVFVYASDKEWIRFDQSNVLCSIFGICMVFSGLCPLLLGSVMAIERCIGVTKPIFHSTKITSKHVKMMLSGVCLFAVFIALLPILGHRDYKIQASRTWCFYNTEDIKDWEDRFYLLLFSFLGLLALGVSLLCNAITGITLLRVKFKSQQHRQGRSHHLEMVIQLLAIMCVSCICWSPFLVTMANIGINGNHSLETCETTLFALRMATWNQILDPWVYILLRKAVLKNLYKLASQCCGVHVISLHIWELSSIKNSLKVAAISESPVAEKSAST

Compound	IC50 [nM]
O=C(O)CCC(CNC(=O)c1c(Cl)c(-c2ccccc2)nc2ccc(Br)cc12)c1c(F)ccc(F)c1Cl (racemic) [Example 221, (+/−)-5-{[(6-Bromo-3-chloro-2-phenylquinolin-4-yl)carbonyl]amino}-4-(2-chloro-3,6-difluorophenyl)pentanoic Acid]	2.4
Cc1c(-c2ccccc2)nc2ccc(Br)cc2c1C(=O)NCC(CCC(=O)O)c1c(F)cccc1C(F)(F)F (racemic) [Example 225, (+/−)-5-{[(6-Bromo-3-methyl-2-phenylquinolin-4-yl)carbonyl]amino}-4-[2-fluoro-6-(trifluoromethyl)phenyl]pentanoic Acid]	4.7
Cc1c(-c2ccccc2)nc2ccc(Br)cc2c1C(=O)NCC(CCC(=O)O)c1c(F)c(F)cc(F)c1F (racemic) [Example 228, (+/−)-5-{[(6-Bromo-3-methyl-2-phenylquinolin-4-yl)carbonyl]amino}-4-(2,3,5,6-tetrafluorophenyl)pentanoic Acid]	4.2
Cc1c(-c2ccccc2)nc2ccc(Br)cc2c1C(=O)NCC(CCC(=O)O)c1cc(F)cc(F)c1F (racemic) [Example 231, (+/−)-5-{[(6-Bromo-3-methyl-2-phenylquinolin-4-yl)carbonyl]amino}-4-(2,3,5-trifluorophenyl)pentanoic Acid]	22
Cc1c(-c2ccccc2)nc2ccc(Br)cc2c1C(=O)NCC(CCC(=O)O)c1c(Cl)ccc(Cl)c1Cl (racemic) [Example 234, (+/−)-5-{[(6-Bromo-3-methyl-2-phenylquinolin-4-yl)carbonyl]amino}-4-(2,3,6-trichlorophenyl)pentanoic Acid]	7.2
Cc1c(-c2ccccc2)nc2ccc(Br)cc2c1C(=O)NCC(C(=O)O)c1ccc(F)cc1 (single isomer, unassigned) [Example 11, 3-{[(6-Bromo-3-methyl-2-phenylquinolin-4-yl)carbonyl]amino}-2-(4-fluorophenyl)propanoic Acid]	470
Cc1c(-c2ccccc2)nc2ccc(Br)cc2c1C(=O)NCC(C(=O)O)c1ccc(F)cc1 (single isomer, unassigned) [Example 12, 3-{[(6-Bromo-3-methyl-2-phenylquinolin-4-yl)carbonyl]amino}-2-(4-fluorophenyl)propanoic Acid]	180
Cc1c(-c2ccccc2)nc2ccc(Br)cc2c1C(=O)NCC(C(=O)O)c1ccc2c(c1)OCO2 (single isomer, unassigned) [Example 24, 2-(1,3-Benzodioxol-5-yl)-3-{[(6-bromo-3-methyl-2-phenylquinolin-4-yl)carbonyl]amino}propanoic Acid]	580
Cc1c(-c2ccccc2)nc2ccc(Br)cc2c1C(=O)NCC(C(=O)O)c1ccc2c(c1)OCO2 (single isomer, unassigned) [Example 25, 2-(1,3-Benzodioxol-5-yl)-3-{[(6-bromo-3-methyl-2-phenylquinolin-4-yl)carbonyl]amino}propanoic Acid]	> 1000
Cc1c(-c2ccccc2)nc2ccc(Br)cc2c1C(=O)NCC(CC(=O)O)c1cccc(Cl)c1 (single isomer, unassigned) [Example 73, 4-{[(6-Bromo-3-methyl-2-phenylquinolin-4-yl)carbonyl]amino}-3-(3-chlorophenyl)butanoic Acid]	86
Cc1c(-c2ccccc2)nc2ccc(Br)cc2c1C(=O)NCC(CC(=O)O)c1cccc(Cl)c1 (single isomer, unassigned) [Example 74, 4-{[(6-Bromo-3-methyl-2-phenylquinolin-4-yl)carbonyl]amino}-3-(3-chlorophenyl)butanoic Acid]	79
Cc1cccc(C(CNC(=O)c2c(C)c(-c3ccccc3)nc3ccc(Br)cc23)CC(=O)O)c1 (single isomer, unassigned) [Example 94, 4-{[(6-Bromo-3-methyl-2-phenylquinolin-4-yl)carbonyl]amino}-3-(3-methylphenyl)butanoic Acid]	96
Cc1cccc(C(CNC(=O)c2c(C)c(-c3ccccc3)nc3ccc(Br)cc23)CC(=O)O)c1 (single isomer, unassigned) [Example 95, 4-{[(6-Bromo-3-methyl-2-phenylquinolin-4-yl)carbonyl]amino}-3-(3-methylphenyl)butanoic Acid]	84
Cc1c(-c2ccccc2)nc2ccc(Br)cc2c1C(=O)NCC(CCC(=O)O)c1cc(F)cc(F)c1F (single isomer, unassigned) [Example 232, 5-{[(6-Bromo-3-methyl-2-phenylquinolin-4-yl)carbonyl]amino}-4-(2,3,5-trifluorophenyl)pentanoic Acid]	8.8
Cc1c(-c2ccccc2)nc2ccc(Br)cc2c1C(=O)NCC(CCC(=O)O)c1cc(F)cc(F)c1F (single isomer, unassigned) [Example 233, 5-{[(6-Bromo-3-methyl-2-phenylquinolin-4-yl)carbonyl]amino}-4-(2,3,5-trifluorophenyl)pentanoic Acid]	25
Cc1c(-c2ccccc2)nc2ccc(Br)cc2c1C(=O)NCC(C(=O)O)c1ccccc1 (single isomer, unassigned; (+)) [Example 3, (+)-3-{[(6-Bromo-3-methyl-2-phenylquinolin-4-yl)carbonyl]amino}-2-phenylpropanoic Acid]	270

Other lines, results leading:

IC50 [nM]	Compound
13	C#Cc1ccc2nc(-c3ccccc3)c(C)c(C(=O)NCC(CCC(=O)O)c3ccccc3Cl)c2c1 (racemic) [Example 218, (+/−)-4-(2-Chlorophenyl)-5-{[(6-ethynyl-3-methyl-2-phenylquinolin-4-yl)carbonyl]amino}pentanoic Acid]
100	Cc1c(-c2ccccc2)nc2ccc(Br)cc2c1C(=O)NCC(CCC(=O)O)c1ccccn1 (racemic) [Example 224, (+/−)-5-{[(6-Bromo-3-methyl-2-phenylquinolin-4-yl)carbonyl]amino}-4-(pyridin-2-yl)pentanoic Acid]
24	Cc1c(-c2ccccc2)nc2ccc(Br)cc2c1C(=O)NCC(C)(CCCC(=O)O)c1ccccc1Cl (racemic) [Example 240, (+/−)-6-{[(6-Bromo-3-methyl-2-phenylquinolin-4-yl)carbonyl]amino}-5-(2-chlorophenyl)-5-methylhexanoic Acid]
31	Cc1c(-c2ccccc2)nc2ccc(Br)cc2c1C(=O)NCC(C)(CCCC(=O)O)c1ccccc1 (racemic) [Example 243, (+/−)-6-{[(6-Bromo-3-methyl-2-phenylquinolin-4-yl)carbonyl]amino}-5-methyl-5-phenylhexanoic Acid]
53	Cc1c(-c2ccccc2)nc2ccc(Br)cc2c1C(=O)NCC(C)(C(=O)O)c1ncccc1Cl (single isomer, unassigned) [Example 27, 3-{[(6-Bromo-3-methyl-2-phenylquinolin-4-yl)carbonyl]amino}-2-(3-chloropyridin-2-yl)-2-methylpropanoic Acid]
100	Cc1c(-c2ccccc2)nc2ccc(Br)cc2c1C(=O)NCC(C)(C(=O)O)c1ncccc1Cl (single isomer, unassigned) [Example 28, 3-{[(6-Bromo-3-methyl-2-phenylquinolin-4-yl)carbonyl]amino}-2-(3-chloropyridin-2-yl)-2-methylpropanoic Acid]
140	Cc1c(-c2ccccc2)nc2ccc(Br)cc2c1C(=O)NCC(CC(=O)O)c1c(Cl)cccc1Cl (single isomer, unassigned) [Example 79, 4-{[(6-Bromo-3-methyl-2-phenylquinolin-4-yl)carbonyl]amino}-3-(2,6-dichlorophenyl)butanoic Acid]
51	Cc1c(-c2ccccc2)nc2ccc(Br)cc2c1C(=O)NCC(CC(=O)O)c1c(Cl)cccc1Cl (single isomer, unassigned) [Example 80, 4-{[(6-Bromo-3-methyl-2-phenylquinolin-4-yl)carbonyl]amino}-3-(2,6-dichlorophenyl)butanoic Acid]
92	Cc1c(-c2ccccc2)nc2ccc(Br)cc2c1C(=O)NCC(c1ccccc1Cl)C(C)(C)C(=O)O (single isomer, unassigned) [Example 112, 4-{[(6-Bromo-3-methyl-2-phenylquinolin-4-yl)carbonyl]amino}-3-(2-chlorophenyl)-2,2-dimethylbutanoic Acid]
62	Cc1c(-c2ccccc2)nc2ccc(Br)cc2c1C(=O)NCC(c1ccccc1Cl)C(C)(C)C(=O)O (single isomer, unassigned) [Example 113, 4-{[(6-Bromo-3-methyl-2-phenylquinolin-4-yl)carbonyl]amino}-3-(2-chlorophenyl)-2,2-dimethylbutanoic Acid]
400	Cc1c(-c2ccccc2)nc2ccc(Br)cc2c1C(=O)NCC(c1ccccc1Cl)S(=O)(=O)CC(=O)O (single isomer, unassigned) [Example 198, (+/−)-{[2-{[(6-Bromo-3-methyl-2-phenylquinolin-4-yl)carbonyl]amino}-1-(2-chlorophenyl)ethyl]sulfonyl}acetic Acid]
25	Cc1c(-c2ccccc2)nc2ccc(Br)cc2c1C(=O)NCC(c1ccccc1Cl)S(=O)(=O)CC(=O)O (single isomer, unassigned) [Example 199, {[2-{[(6-Bromo-3-methyl-2-phenylquinolin-4-yl)carbonyl]amino}-1-(2-chlorophenyl)ethyl]sulfonyl}acetic Acid]
7.2	COc1ccccc1C(CNC(=O)c1c(C)c(-c2ccccc2)nc2ccc(Br)cc12)C(=O)O (single isomer, unassigned; (+)) [Example 9, (+)-3-{[(6-Bromo-3-methyl-2-phenylquinolin-4-yl)carbonyl]amino}-2-(2-methoxyphenyl)propanoic Acid]
190	Cc1c(-c2ccccc2)nc2ccc(Br)cc2c1C(=O)NCC(C)(C(=O)O)c1ccccc1 (single isomer, unassigned; (+)) [Example 15, (+)-3-{[(6-Bromo-3-methyl-2-phenylquinolin-4-yl)carbonyl]amino}-2-methyl-2-phenylpropanoic Acid]
120	CCC(CNC(=O)c1c(C)c(-c2ccccc2)nc2ccc(Br)cc12)(C(=O)O)c1ccccc1 (single isomer, unassigned; (+)) [Example 18, (+)-2-({[(6-Bromo-3-methyl-2-phenylquinolin-4-yl)carbonyl]amino}methyl)-2-phenylbutanoic Acid]

— patent US11136296B2, “Substituted N-arylethyl-2-arylquinoline-4-carboxamides and use thereof” (Bayer Aktiengesellschaft, priority 2017, dated 2021)
